{"source": "paper PMC9950431", "about": "“A bivalent remipede toxin promotes calcium release via ryanodine receptor activation” (Nature Communications, 2023)", "key": {"[1]": {"molecular_target": "T1, ryanodine receptor (Oryctolagus cuniculus, UniProt P11716)", "T1 construct": "skeletal SR vesicles were isolated from the back and leg muscles of mature female New Zealand white rabbits; from tissue; host or cells: rabbit back and leg skeletal muscle, sarcoplasmic reticulum vesicles", "T1 sequence (P11716 whole entry, canonical isoform)": "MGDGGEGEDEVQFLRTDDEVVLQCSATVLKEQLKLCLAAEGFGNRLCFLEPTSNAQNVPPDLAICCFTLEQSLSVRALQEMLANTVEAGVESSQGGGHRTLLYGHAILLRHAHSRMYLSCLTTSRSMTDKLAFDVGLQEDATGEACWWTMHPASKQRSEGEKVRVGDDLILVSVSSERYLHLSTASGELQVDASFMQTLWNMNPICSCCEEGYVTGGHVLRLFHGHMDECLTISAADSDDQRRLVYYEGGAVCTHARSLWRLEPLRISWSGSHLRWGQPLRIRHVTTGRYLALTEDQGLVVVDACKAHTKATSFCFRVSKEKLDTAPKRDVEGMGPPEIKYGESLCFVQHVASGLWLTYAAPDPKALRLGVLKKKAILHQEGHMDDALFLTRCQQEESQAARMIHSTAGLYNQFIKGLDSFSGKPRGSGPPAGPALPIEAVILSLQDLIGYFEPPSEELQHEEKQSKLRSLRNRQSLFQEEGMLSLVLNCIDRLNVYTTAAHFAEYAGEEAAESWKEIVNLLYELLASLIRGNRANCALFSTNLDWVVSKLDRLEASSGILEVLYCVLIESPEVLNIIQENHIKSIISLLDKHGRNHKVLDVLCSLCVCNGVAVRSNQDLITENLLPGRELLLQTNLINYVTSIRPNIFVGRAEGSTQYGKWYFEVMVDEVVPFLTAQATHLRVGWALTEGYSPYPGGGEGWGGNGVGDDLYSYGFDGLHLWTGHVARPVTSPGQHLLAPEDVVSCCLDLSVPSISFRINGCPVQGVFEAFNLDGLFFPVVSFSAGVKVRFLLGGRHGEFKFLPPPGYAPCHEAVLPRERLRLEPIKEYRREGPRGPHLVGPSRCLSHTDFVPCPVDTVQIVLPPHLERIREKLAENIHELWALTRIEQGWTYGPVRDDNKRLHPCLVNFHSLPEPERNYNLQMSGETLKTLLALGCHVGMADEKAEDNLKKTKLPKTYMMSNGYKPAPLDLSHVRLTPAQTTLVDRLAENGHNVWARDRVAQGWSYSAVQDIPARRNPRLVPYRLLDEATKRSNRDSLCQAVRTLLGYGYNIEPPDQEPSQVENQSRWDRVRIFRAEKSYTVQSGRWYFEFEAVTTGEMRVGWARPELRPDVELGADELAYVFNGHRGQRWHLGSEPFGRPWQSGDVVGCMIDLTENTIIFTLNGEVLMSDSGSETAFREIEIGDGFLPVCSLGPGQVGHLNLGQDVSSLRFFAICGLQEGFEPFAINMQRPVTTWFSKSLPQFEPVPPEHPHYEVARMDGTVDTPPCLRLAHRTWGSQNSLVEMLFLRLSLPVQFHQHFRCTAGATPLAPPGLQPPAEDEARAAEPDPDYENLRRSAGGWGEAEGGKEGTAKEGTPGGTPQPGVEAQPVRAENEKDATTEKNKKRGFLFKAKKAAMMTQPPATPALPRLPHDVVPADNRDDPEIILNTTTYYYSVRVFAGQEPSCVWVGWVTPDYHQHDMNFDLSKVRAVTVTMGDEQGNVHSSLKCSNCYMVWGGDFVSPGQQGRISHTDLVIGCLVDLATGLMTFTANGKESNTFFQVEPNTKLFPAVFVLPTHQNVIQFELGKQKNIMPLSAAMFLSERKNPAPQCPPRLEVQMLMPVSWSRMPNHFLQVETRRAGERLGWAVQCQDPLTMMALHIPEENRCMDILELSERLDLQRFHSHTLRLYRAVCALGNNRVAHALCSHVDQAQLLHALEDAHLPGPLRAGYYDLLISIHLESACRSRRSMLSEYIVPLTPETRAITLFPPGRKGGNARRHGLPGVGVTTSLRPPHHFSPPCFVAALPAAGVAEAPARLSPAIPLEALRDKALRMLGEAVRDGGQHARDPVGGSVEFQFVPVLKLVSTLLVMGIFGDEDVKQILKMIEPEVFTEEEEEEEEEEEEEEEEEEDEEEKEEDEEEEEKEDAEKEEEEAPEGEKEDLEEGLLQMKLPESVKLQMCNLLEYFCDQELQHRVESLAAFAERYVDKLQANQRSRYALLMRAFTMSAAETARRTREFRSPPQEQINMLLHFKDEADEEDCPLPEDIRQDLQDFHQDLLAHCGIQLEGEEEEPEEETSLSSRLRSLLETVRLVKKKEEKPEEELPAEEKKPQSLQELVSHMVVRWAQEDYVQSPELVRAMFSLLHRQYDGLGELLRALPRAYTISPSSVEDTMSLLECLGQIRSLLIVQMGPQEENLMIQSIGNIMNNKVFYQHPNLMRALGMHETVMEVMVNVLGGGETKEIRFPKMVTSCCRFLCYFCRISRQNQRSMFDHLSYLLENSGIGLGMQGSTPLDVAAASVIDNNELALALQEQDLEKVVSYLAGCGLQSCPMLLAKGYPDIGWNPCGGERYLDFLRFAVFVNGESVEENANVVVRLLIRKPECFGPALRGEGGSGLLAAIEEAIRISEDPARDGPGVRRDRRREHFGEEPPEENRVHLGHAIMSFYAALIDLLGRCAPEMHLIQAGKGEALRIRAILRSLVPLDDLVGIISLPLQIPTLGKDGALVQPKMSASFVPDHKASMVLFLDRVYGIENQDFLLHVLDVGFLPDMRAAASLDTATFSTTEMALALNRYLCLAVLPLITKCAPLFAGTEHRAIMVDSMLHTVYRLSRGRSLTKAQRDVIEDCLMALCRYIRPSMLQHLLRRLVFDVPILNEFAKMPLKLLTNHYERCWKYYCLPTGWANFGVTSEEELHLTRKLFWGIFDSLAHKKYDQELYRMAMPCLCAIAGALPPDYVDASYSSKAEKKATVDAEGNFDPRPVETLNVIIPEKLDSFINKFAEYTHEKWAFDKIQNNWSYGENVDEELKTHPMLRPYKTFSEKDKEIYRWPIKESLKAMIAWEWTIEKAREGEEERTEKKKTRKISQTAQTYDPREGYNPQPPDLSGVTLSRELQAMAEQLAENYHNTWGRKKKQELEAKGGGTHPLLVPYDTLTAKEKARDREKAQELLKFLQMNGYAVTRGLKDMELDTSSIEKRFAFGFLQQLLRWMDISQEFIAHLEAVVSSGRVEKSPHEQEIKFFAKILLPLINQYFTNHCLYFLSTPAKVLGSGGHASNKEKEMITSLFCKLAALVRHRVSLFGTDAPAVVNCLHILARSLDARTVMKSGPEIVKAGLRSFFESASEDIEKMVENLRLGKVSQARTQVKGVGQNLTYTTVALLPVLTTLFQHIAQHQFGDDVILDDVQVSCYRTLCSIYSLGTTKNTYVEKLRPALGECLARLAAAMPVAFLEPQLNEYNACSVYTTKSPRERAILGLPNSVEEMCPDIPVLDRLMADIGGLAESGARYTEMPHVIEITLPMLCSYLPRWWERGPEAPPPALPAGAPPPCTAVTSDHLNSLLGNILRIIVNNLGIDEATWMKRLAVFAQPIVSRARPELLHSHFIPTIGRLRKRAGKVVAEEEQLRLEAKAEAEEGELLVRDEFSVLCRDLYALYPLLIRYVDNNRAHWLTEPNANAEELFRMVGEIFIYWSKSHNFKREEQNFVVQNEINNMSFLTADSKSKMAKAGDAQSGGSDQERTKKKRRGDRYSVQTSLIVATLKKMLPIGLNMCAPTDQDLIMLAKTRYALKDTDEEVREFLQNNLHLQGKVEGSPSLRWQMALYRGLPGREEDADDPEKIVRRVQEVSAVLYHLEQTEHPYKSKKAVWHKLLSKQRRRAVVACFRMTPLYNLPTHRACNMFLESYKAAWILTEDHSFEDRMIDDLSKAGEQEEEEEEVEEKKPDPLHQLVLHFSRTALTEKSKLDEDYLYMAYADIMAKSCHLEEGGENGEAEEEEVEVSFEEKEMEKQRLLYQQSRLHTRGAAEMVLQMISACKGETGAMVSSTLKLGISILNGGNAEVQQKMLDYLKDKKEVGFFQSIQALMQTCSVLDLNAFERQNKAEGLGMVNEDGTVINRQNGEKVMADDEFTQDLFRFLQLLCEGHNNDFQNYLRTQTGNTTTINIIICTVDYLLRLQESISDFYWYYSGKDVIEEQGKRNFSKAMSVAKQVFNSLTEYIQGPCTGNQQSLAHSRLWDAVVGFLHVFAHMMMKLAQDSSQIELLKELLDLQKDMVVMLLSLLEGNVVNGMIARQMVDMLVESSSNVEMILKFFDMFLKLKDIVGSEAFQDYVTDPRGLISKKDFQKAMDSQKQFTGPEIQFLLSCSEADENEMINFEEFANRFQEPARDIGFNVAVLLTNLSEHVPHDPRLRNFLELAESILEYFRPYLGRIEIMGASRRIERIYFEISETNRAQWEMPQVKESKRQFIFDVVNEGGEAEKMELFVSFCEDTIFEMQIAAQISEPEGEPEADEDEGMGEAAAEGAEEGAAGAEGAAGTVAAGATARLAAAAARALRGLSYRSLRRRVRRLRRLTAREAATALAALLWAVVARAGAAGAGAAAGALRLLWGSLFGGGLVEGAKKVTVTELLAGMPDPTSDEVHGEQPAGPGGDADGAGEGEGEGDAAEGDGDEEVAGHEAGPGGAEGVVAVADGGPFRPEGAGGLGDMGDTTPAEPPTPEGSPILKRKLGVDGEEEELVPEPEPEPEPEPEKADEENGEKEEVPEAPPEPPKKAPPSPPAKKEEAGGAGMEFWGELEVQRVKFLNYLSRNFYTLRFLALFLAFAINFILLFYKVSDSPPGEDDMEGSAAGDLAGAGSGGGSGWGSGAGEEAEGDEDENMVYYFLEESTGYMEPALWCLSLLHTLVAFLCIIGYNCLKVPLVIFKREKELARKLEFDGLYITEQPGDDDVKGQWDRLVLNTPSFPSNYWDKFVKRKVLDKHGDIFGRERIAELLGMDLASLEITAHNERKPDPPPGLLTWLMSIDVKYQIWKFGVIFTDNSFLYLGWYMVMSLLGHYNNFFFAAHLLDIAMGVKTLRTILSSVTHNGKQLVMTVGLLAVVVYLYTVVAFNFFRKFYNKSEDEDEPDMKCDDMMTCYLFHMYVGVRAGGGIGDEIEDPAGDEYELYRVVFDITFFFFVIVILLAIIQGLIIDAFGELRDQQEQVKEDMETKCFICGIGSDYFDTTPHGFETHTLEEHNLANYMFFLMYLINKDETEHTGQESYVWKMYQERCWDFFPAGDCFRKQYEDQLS", "experiment": "Single channel recording with Xt3a exposure, sheet \"Figure 3B\" (RyR isoform not given)", "format": "biochemical"}, "[2]": {"test_system": "sarcoplasmic reticulum (SR) in mouse extensor digitorum longus (EDL) fibers", "experiment": "SR Ca2+ leak in mechanically-skinned EDL muscle fibers (total SR Ca2+ content, [CaT]SR, after 1 min leak)", "format": "cell-based, mouse (C57/Bl6)", "source_text": "All experiments were approved by The University of Queensland Animal Ethics Committees. Male and female C57/Bl6 2–6-month-old mice were sacrificed by asphyxiation via CO2 exposure and the EDL muscles were rapidly excised. The EDL was pinned at resting length in a petri dish lined with Sylgard 184 (Dow Corning, Midland, MI) and immersed in paraffin oil (Ajax Chemicals, Sydney, Australia). Segments of individual fibers were mechanically skinned using jeweler’s forceps and pinned out unstretched under oil[37]–[39]. The skinned fiber was then mounted at 120% of resting length on a force transducer (Myotronic UG, Heidelberg, Germany) before transfer to a 2-ml Perspex bath containing standard K^+-based solution that broadly mimics the intracellular milieu. […] All chemicals were purchased from Sigma-Aldrich (St Louis, MO, USA) unless specified otherwise.\nVariations of the standard solution were prepared. To deplete the caffeine releasable Ca^2+ (“full release solution”), 30 mM caffeine was added, [Mg^2+] was lowered to 0.05 mM (total Mg^2+ of 2.1 mM) and free EGTA was adjusted to 0.5 mM (pCa 8.5) to chelate released Ca^2+. To measure the maximum force produced by the skinned fiber, all HDTA was replaced by EGTA (relaxing solution) or CaEGTA (maximum Ca^2+ activating solution). The relaxing solution contained 50 mM EGTA and no added Ca^2+ (pCa > 9) and the maximum Ca^2+-activating solution contained 49.5 mM Ca^2+ (pCa 4.7), with total Mg^2+ of 10.3 and 8.1 mM, respectively, to maintain the free [Mg^2+] at 1 mM. A “leak solution” was also prepared, where [Mg^2+] set at 0.1 mM (total Mg^2+ of 3.4 mM) to increase the PO of RyR and with 2 mM EGTA (pCa ~8.5) to chelate leaky Ca^2+ from the SR. […] The BAPTA solution used to pre-equilibrate fibers before lysing was similar to the standard K-HDTA solution but EGTA was replaced with 0.1–1.6 mM BAPTA[37],[39].\nThe skinned fiber was then equilibrated for 20 s in a solution with a set [BAPTA] before being placed in a freshly triturated emulsion of Triton X-100 in paraffin oil (TX–oil) (10% v/v). The Ca^2+ released upon the membrane lysing rapidly binds to the known amount of BAPTA present within the fiber and to other sites, predominantly troponin C (TnC). The pre-equilibrating [BAPTA] was chosen such that the fiber produced a finite, non-maximal force response upon lysis. Pre-treatment of the fiber with “full release solution” allowed the non-SR Ca^2+ content of the skinned fiber to be assayed. The total amount of Ca^2+ present in the fiber could be calculated from the [BAPTA] in the equilibration solution and the magnitude of the force response. Data are presented as mean ± SD, with n denoting the number of fibers examined. Statistical significance (p < 0.05) was determined with One-way ANOVA."}}}
{"substance": "φ-Xibalbin3-Xt3a", "values": [{"measurement": "rel Po", "setting": "[1]; 1nM Xt3a vs 1 micoM Ca, CT1124n", "result": 0.8977}, {"measurement": "rel Po", "setting": "[1]; 1nM Xt3a vs 1 micoM Ca, CT1124p", "result": 0.6333}, {"measurement": "rel Po", "setting": "[1]; 1nM Xt3a vs 1 micoM Ca, CT1125p (r7)", "result": 0.7826}, {"measurement": "rel Po", "setting": "[1]; 1nM Xt3a vs 1 micoM Ca, CT1125p (r12)", "result": 0.3373}, {"measurement": "rel Po", "setting": "[1]; 1nM Xt3a vs 1 micoM Ca, CT1126n", "result": 1.286}, {"measurement": "rel Po", "setting": "[1]; 1nM Xt3a vs 1 micoM Ca, CT1126p", "result": 0.0123}, {"measurement": "rel Po", "setting": "[1]; 1nM Xt3a vs 1 micoM Ca, CT1129p", "result": 0.92}, {"measurement": "rel Po", "setting": "[1]; 1nM Xt3a vs 1 micoM Ca, mean of 7 records", "result": 0.6956}, {"measurement": "rel Po", "setting": "[1]; 10nM Xt3a vs 1 micoM Ca, CT1124n", "result": 0.4488}, {"measurement": "rel Po", "setting": "[1]; 10nM Xt3a vs 1 micoM Ca, CT1124p", "result": 0.3778}, {"measurement": "rel Po", "setting": "[1]; 10nM Xt3a vs 1 micoM Ca, CT1125p (r7)", "result": 1.957}, {"measurement": "rel Po", "setting": "[1]; 10nM Xt3a vs 1 micoM Ca, CT1125p (r12)", "result": 1.108}, {"measurement": "rel Po", "setting": "[1]; 10nM Xt3a vs 1 micoM Ca, CT1126n", "result": 2.128}, {"measurement": "rel Po", "setting": "[1]; 10nM Xt3a vs 1 micoM Ca, CT1126p", "result": 0.02049}, {"measurement": "rel Po", "setting": "[1]; 10nM Xt3a vs 1 micoM Ca, CT1129p", "result": 0.23}, {"measurement": "rel Po", "setting": "[1]; 10nM Xt3a vs 1 micoM Ca, mean of 7 records", "result": 0.8957}, {"measurement": "rel Po", "setting": "[1]; 100nM Xt3a vs 1 micoM Ca, CT1134 n", "result": 0.7716}, {"measurement": "rel Po", "setting": "[1]; 100nM Xt3a vs 1 micoM Ca, CT1134 p", "result": 1.135}, {"measurement": "rel Po", "setting": "[1]; 100nM Xt3a vs 1 micoM Ca, CT1135 n", "result": 0.4052}, {"measurement": "rel Po", "setting": "[1]; 100nM Xt3a vs 1 micoM Ca, CT1135 p", "result": 0.4783}, {"measurement": "rel Po", "setting": "[1]; 100nM Xt3a vs 1 micoM Ca, CT1136 n", "result": 1.741}, {"measurement": "rel Po", "setting": "[1]; 100nM Xt3a vs 1 micoM Ca, CT1136 p", "result": 0.75}, {"measurement": "rel Po", "setting": "[1]; 100nM Xt3a vs 1 micoM Ca, CT1137 n", "result": 0.9231}, {"measurement": "rel Po", "setting": "[1]; 100nM Xt3a vs 1 micoM Ca, CT1137p", "result": 4}, {"measurement": "rel Po", "setting": "[1]; 100nM Xt3a vs 1 micoM Ca, CT1138n", "result": 4.333}, {"measurement": "rel Po", "setting": "[1]; 100nM Xt3a vs 1 micoM Ca, CT1138p", "result": 1.4}, {"measurement": "rel Po", "setting": "[1]; 100nM Xt3a vs 1 micoM Ca, mean of 10 records", "result": 1.5937}, {"measurement": "rel Po", "setting": "[1]; 1 microM Xt3a vs 1 micoM Ca, CT1134 n", "result": 1.472}, {"measurement": "rel Po", "setting": "[1]; 1 microM Xt3a vs 1 micoM Ca, CT1134 p", "result": 4.143}, {"measurement": "rel Po", "setting": "[1]; 1 microM Xt3a vs 1 micoM Ca, CT1135 n", "result": 32.1638}, {"measurement": "rel Po", "setting": "[1]; 1 microM Xt3a vs 1 micoM Ca, CT1136 n", "result": 1}, {"measurement": "rel Po", "setting": "[1]; 1 microM Xt3a vs 1 micoM Ca, CT1136 p", "result": 0.625}, {"measurement": "rel Po", "setting": "[1]; 1 microM Xt3a vs 1 micoM Ca, CT1137 n", "result": 1.769}, {"measurement": "rel Po", "setting": "[1]; 1 microM Xt3a vs 1 micoM Ca, CT1137p", "result": 2}, {"measurement": "rel Po", "setting": "[1]; 1 microM Xt3a vs 1 micoM Ca, CT1138n", "result": 1.286}, {"measurement": "rel Po", "setting": "[1]; 1 microM Xt3a vs 1 micoM Ca, CT1138p", "result": 0.9}, {"measurement": "rel Po", "setting": "[1]; 1 microM Xt3a vs 1 micoM Ca, mean (CT1135 p cell empty)", "result": 5.04}, {"measurement": "efficiency to increase SR Ca2+ leakage (order)", "setting": "[2]; 10 nM", "result": "Xt3a > Xt3a-D1 ~ IpTxA > Xt3a-D2"}, {"measurement": "depletion of [CaT]SR", "setting": "[2]; 10 nM peptide in leak solution, 1 min leak, mean ± SD, control leak 18 ± 7%", "result": "76 ± 5", "unit": "%"}, {"measurement": "Relative amount of total Ca2+ left in the SR ([CaT]SR)", "setting": "[2]; 10 nM peptide, 1 min leak, relative to Pre, fiber 2 of column", "result": 20.6}, {"measurement": "Relative amount of total Ca2+ left in the SR ([CaT]SR)", "setting": "[2]; 10 nM peptide, 1 min leak, relative to Pre, fiber 3 of column", "result": 24.9}, {"measurement": "Relative amount of total Ca2+ left in the SR ([CaT]SR)", "setting": "[2]; 10 nM peptide, 1 min leak, relative to Pre, fiber 4 of column", "result": 22.9}, {"measurement": "Relative amount of total Ca2+ left in the SR ([CaT]SR)", "setting": "[2]; 10 nM peptide, 1 min leak, relative to Pre, fiber 5 of column", "result": 23.5}, {"measurement": "Relative amount of total Ca2+ left in the SR ([CaT]SR)", "setting": "[2]; 10 nM peptide, 1 min leak, relative to Pre, fiber 6 of column", "result": 22.7}, {"measurement": "Relative amount of total Ca2+ left in the SR ([CaT]SR)", "setting": "[2]; 10 nM peptide, 1 min leak, relative to Pre, fiber 7 of column", "result": 27.4}, {"measurement": "Relative amount of total Ca2+ left in the SR ([CaT]SR)", "setting": "[2]; 10 nM peptide, 1 min leak, relative to Pre, fiber 8 of column", "result": 27.5}, {"measurement": "Relative amount of total Ca2+ left in the SR ([CaT]SR)", "setting": "[2]; 10 nM peptide, 1 min leak, relative to Pre, fiber 9 of column", "result": 25.7}, {"measurement": "Relative amount of total Ca2+ left in the SR ([CaT]SR)", "setting": "[2]; 10 nM peptide, 1 min leak, relative to Pre, fiber 10 of column", "result": 30.9}, {"measurement": "Relative amount of total Ca2+ left in the SR ([CaT]SR)", "setting": "[2]; 10 nM peptide, 1 min leak, relative to Pre, fiber 11 of column", "result": 32.9}, {"measurement": "Relative amount of total Ca2+ left in the SR ([CaT]SR)", "setting": "[2]; 10 nM peptide, 1 min leak, relative to Pre, fiber 12 of column", "result": 22.4}, {"measurement": "Relative amount of total Ca2+ left in the SR ([CaT]SR)", "setting": "[2]; 10 nM peptide, 1 min leak, relative to Pre, fiber 13 of column", "result": 13.3}, {"measurement": "Relative amount of total Ca2+ left in the SR ([CaT]SR), mean", "setting": "[2]; 10 nM peptide, 1 min leak, relative to Pre, mean (n = 13 Xt3a, n = 10 others)", "result": 24.4}, {"measurement": "Relative amount of total Ca2+ left in the SR ([CaT]SR)", "setting": "[2]; 10 nM peptide, 1 min leak, relative to [CaT]SR before the leak (Pre), fiber 1 of column", "result": 21.9}]}
